Assay results published in US10221156B2, “Pyridin-3-yl acetic acid derivatives as inhibitors of human immunodeficiency virus replication” (ViiV HEALTHCARE UK (No. 5) LIMITED, priority 2015, dated 2019).
Like-named read-outs stand apart in the source and are kept apart here.

System: recombinant NL-RLuc virus (HIV NL4-3 with Renilla Luciferase) in MT-2 cells
Test: Inhibition of HIV replication (NL-RLuc virus in MT-2 cells, luciferase readout)
Format: cell-based
Source text: Inhibition of HIV Replication:
A recombinant NL-RLuc proviral clone was constructed in which a section of the nef gene from NL4-3 was replaced with the Renilla Luciferase gene. This virus is fully infectious and can undergo multiple cycles of replication in cell culture. In addition, the luciferous reporter provides a simple and easy method for quantitating the extent of virus growth and consequently, the antiviral activity of test compounds. The plasmid pNLRLuc contains the proviral NL-Rluc DNA cloned into pUC18 at the PvuII site. The NL-RLuc virus was prepared by transfection of 293T cells with the plasmid pNLRLuc. Transfections were performed using the LipofectAMINE PLUS kit from Invitrogen (Carlsbad, Calif.) according to the manufacturer and the virus generated was titered in MT-2 cells. For susceptibility analyses, the titrated virus was used to infect MT-2 cells in the presence of compound, and after 5 days of incubation, cells were processed and quantitated for virus growth by the amount of expressed luciferase. Assay media was RPMI 1640 supplemented with 10% heat inactivated fetal bovine serum (FBS), 100 units/ml penicillin G/100 units/ml streptomycin, 10 mM HEPES buffer pH 7.55 and 2 mM L-glutamine. The results from at least 2 experiments were used to calculate the EC50 values. Luciferase was quantitated using the Dual Luciferase kit from Promega (Madison, Wis.). Susceptibility of viruses to compounds was determined by incubation in the presence of serial dilutions of the compound. The 50% effective concentration (EC50) was calculated by using the exponential form of the median effect equation where (Fa)=1/[1+(ED50/drug conc.)^m] (Johnson V A, Byington R T. Infectivity Assay. In Techniques in HIV Research. ed. Aldovini A, Walker B D. 71-76. New York: Stockton Press. 1990). Activity equal to A refers to a compound having an EC50≤100 nM, while B and C denote compounds having an EC50 between 100 nM and 1 uM (B) or >1 uM (C).

Row | Structure (SMILES) | EC50 (MT2, 120 h, read-out: Activity) [µM] | EC50 (MT2, 120 h, read-out: EC50 μM) [µM] | EC50 ({}) [µM]
1 | Cc1nc(C)c([C@H](OC(C)(C)C)C(=O)O)c(N2CCC(C)(C)CC2)c1-c1ccc(OCCN2CCN(C)CC2)cc1 [Example 1, (S)-2-(tert-Butoxy)-2-(4-(4,4-dimethylpiperidin-1-yl)-2,6-dimethyl-5-(4-(2-(4-methylpiperazin-1-yl)ethoxy)phenyl)pyridin-3-yl)acetic Acid] | 0.1 to 1 | 0.117 | 
2 | Cc1nc(C)c([C@H](OC(C)(C)C)C(=O)O)c(N2CCC(C)(C)CC2)c1-c1ccc(OCCC2CCCCC2)cc1 [Example 2, (S)-2-(tert-Butoxy)-2-(5-(4-(2-cyclohexylethoxy)phenyl)-4-(4,4-dimethylpiperidin-1-yl)-2,6-dimethylpyridin-3-yl)acetic Acid] | < 0.1 | 0.034 | 
3 | Cc1nc(C)c([C@H](OC(C)(C)C)C(=O)O)c(N2CCC(C)(C)CC2)c1-c1ccc(OC2CCOc3ccccc32)cc1 (stereo partly drawn) [Example 3, (2S)-2-(tert-Butoxy)-2-(5-(4-(chroman-4-yloxy)phenyl)-4-(4,4-dimethylpiperidin-1-yl)-2,6-dimethylpyridin-3-yl)acetic Acid] | < 0.1 |  | 
4 | Cc1nc(C)c([C@H](OC(C)(C)C)C(=O)O)c(N2CCC(C)(C)CC2)c1-c1ccc(OCCN2CCCCC2)cc1 [Example 4, (S)-2-(tert-Butoxy)-2-(4-(4,4-dimethylpiperidin-1-yl)-2,6-dimethyl-5-(4-(2-(piperidin-1-yl)ethoxy)phenyl)pyridin-3-yl)acetic Acid] | < 0.1 |  | 
5 | Cc1nc(C)c([C@H](OC(C)(C)C)C(=O)O)c(N2CCC(C)(C)CC2)c1-c1ccc(OCCN2CCOCC2)cc1 [Example 5, (S)-2-(tert-Butoxy)-2-(4-(4,4-dimethylpiperidin-1-yl)-2,6-dimethyl-5-(4-(2-morpholinoethoxy)phenyl)pyridin-3-yl)acetic Acid] | < 0.1 | 0.021 | 
6 | COc1cccc(C2CCN(CCOc3ccc(-c4c(C)nc(C)c([C@H](OC(C)(C)C)C(=O)O)c4N4CCC(C)(C)CC4)cc3)CC2)c1 [Example 6, (S)-2-(tert-Butoxy)-2-(4-(4,4-dimethylpiperidin-1-yl)-5-(4-(2-(4-(3-methoxyphenyl)piperidin-1-yl)ethoxy)phenyl)-2,6-dimethylpyridin-3-yl)acetic Acid] | < 0.1 |  | 
7 | Cc1nc(C)c([C@H](OC(C)(C)C)C(=O)O)c(N2CCC(C)(C)CC2)c1-c1ccc(OCCN2CCC(C)CC2)cc1 [Example 7, (S)-2-(tert-Butoxy)-2-(4-(4,4-dimethylpiperidin-1-yl)-2,6-dimethyl-5-(4-(2-(4-methylpiperidin-1-yl)ethoxy)phenyl)pyridin-3-yl)acetic Acid] | < 0.1 |  | 
8 | Cc1nc(C)c([C@H](OC(C)(C)C)C(=O)O)c(N2CCC(C)(C)CC2)c1-c1ccc(OCC2CCC(C)CC2)cc1 (stereo partly drawn) [Example 8, (S)-2-(tert-Butoxy)-2-(4-(4,4-dimethylpiperidin-1-yl)-2,6-dimethyl-5-(4-((4-methylcyclohexyl)methoxy)phenyl)pyridin-3-yl)acetic Acid] | < 0.1 |  | 
9 | Cc1nc(C)c([C@H](OC(C)(C)C)C(=O)O)c(N2CCC(C)(C)CC2)c1-c1ccc(OCC2CCC(C)CC2)cc1 (stereo partly drawn) [Example 9, (S)-2-(tert-Butoxy)-2-(4-(4,4-dimethylpiperidin-1-yl)-2,6-dimethyl-5-(4-((4-methylcyclohexyl)methoxy)phenyl)pyridin-3-yl)acetic Acid] |  |  | < 0.1
10 | Cc1nc(C)c([C@H](OC(C)(C)C)C(=O)O)c(N2CCC(C)(C)CC2)c1-c1ccc(OCCN2CCN(Cc3ccc(F)cc3)CC2)cc1 [Example 10, (S)-2-(tert-Butoxy)-2-(4-(4,4-dimethylpiperidin-1-yl)-5-(4-(2-(4-(4-fluorobenzyl)piperazin-1-yl)ethoxy)phenyl)-2,6-dimethylpyridin-3-yl)acetic Acid] | < 0.1 |  | 
11 | Cc1nc(C)c([C@H](OC(C)(C)C)C(=O)O)c(N2CCC(C)(C)CC2)c1-c1ccc(OCC2(c3ccc(F)cc3)CC2)cc1 [Example 11] | < 0.1 | 0.003 | 
12 | Cc1nc(C)c([C@H](OC(C)(C)C)C(=O)O)c(N2CCC(C)(C)CC2)c1-c1ccc(OC2Cc3ccccc3C2)cc1 [Example 12, (S)-2-(tert-Butoxy)-2-(5-(4-((2,3-dihydro-1H-inden-2-yl)oxy)phenyl)-4-(4,4-dimethylpiperidin-1-yl)-2,6-dimethylpyridin-3-yl)acetic Acid] | < 0.1 |  | 
13 | Cc1nc(C)c([C@H](OC(C)(C)C)C(=O)O)c(N2CCC(C)(C)CC2)c1-c1ccc(OCCN2CCSCC2)cc1 [Example 13, (S)-2-(tert-Butoxy)-2-(4-(4,4-dimethylpiperidin-1-yl)-2,6-dimethyl-5-(4-(2-thiomorpholinoethoxy)phenyl)pyridin-3-yl)acetic Acid] | < 0.1 | 0.003 | 
14 | Cc1nc(C)c([C@H](OC(C)(C)C)C(=O)O)c(N2CCC(C)(C)CC2)c1-c1ccc(OCCN2CCS(=O)(=O)CC2)cc1 [Example 14, (S)-2-(tert-Butoxy)-2-(4-(4,4-dimethylpiperidin-1-yl)-5-(4-(2-(1,1-dioxidothiomorpholino)ethoxy)phenyl)-2,6-dimethylpyridin-3-yl)acetic Acid] | < 0.1 |  | 
15 | Cc1nc(C)c([C@H](OC(C)(C)C)C(=O)O)c(N2CCC(C)(C)CC2)c1-c1ccc(OC2CC(c3ccc(F)cc3)C2)cc1 (stereo partly drawn) [Example 15, (S)-2-(tert-Butoxy)-2-(4-(4,4-dimethylpiperidin-1-yl)-5-(4-(3-(4-fluorophenyl)cyclobutoxy)phenyl)-2,6-dimethylpyridin-3-yl)acetic Acid] | < 0.1 |  | 
16 | Cc1nc(C)c([C@H](OC(C)(C)C)C(=O)O)c(N2CCC(C)(C)CC2)c1-c1ccc(OC2CCC(c3ccc(F)cc3)CC2)cc1 (stereo partly drawn) [Example 16, (S)-2-(tert-Butoxy)-2-(4-(4,4-dimethylpiperidin-1-yl)-5-(4-((4-(4-fluorophenyl)cyclohexyl)oxy)phenyl)-2,6-dimethylpyridin-3-yl)acetic Acid] | < 0.1 |  | 
17 | Cc1nc(C)c([C@H](OC(C)(C)C)C(=O)O)c(N2CCC(C)(C)CC2)c1-c1ccc(OC2CCCC2c2ccc(F)cc2)cc1 (stereo partly drawn) [Example 17, (2S)-2-(tert-Butoxy)-2-(4-(4,4-dimethylpiperidin-1-yl)-5-(4-((2-(4-fluorophenyl)cyclopentyl)oxy)phenyl)-2,6-dimethylpyridin-3-yl)acetic acid] | < 0.1 | 0.012 | 
18 | Cc1nc(C)c([C@H](OC(C)(C)C)C(=O)O)c(N2CCC(C)(C)CC2)c1-c1ccc(OC2CCCC2c2ccc(F)cc2)cc1 (stereo partly drawn) [Example 18, (2S)-2-(tert-Butoxy)-2-(4-(4,4-dimethylpiperidin-1-yl)-5-(4-((2-(4-fluorophenyl)cyclopentyl)oxy)phenyl)-2,6-dimethylpyridin-3-yl)acetic acid] |  |  | < 0.1
19 | Cc1nc(C)c([C@H](OC(C)(C)C)C(=O)O)c(N2CCC(C)(C)CC2)c1-c1ccc(OC2COCC2c2ccc(F)cc2)cc1 (stereo partly drawn) [Example 19, (2S)-2-(tert-Butoxy)-2-(4-(4,4-dimethylpiperidin-1-yl)-5-(4-((4-(4-fluorophenyl)tetrahydrofuran-3-yl)oxy)phenyl)-2,6-dimethylpyridin-3-yl)acetic acid] | < 0.1 |  | 
20 | Cc1nc(C)c([C@H](OC(C)(C)C)C(=O)O)c(N2CCC(C)(C)CC2)c1-c1ccc(OC2COCC2c2ccc(F)cc2)cc1 (stereo partly drawn) [Example 20, (2S)-2-(tert-Butoxy)-2-(4-(4,4-dimethylpiperidin-1-yl)-5-(4-((4-(4-fluorophenyl)tetrahydrofuran-3-yl)oxy)phenyl)-2,6-dimethylpyridin-3-yl)acetic acid] |  |  | < 0.1
